Format in all cases: biochemical
One experiment addresses T1, human DGAT1 (Homo sapiens, UniProt O75907).
T1 construct: made in house; host or cells: sf9 insect cells
T1 sequence (O75907 1-488): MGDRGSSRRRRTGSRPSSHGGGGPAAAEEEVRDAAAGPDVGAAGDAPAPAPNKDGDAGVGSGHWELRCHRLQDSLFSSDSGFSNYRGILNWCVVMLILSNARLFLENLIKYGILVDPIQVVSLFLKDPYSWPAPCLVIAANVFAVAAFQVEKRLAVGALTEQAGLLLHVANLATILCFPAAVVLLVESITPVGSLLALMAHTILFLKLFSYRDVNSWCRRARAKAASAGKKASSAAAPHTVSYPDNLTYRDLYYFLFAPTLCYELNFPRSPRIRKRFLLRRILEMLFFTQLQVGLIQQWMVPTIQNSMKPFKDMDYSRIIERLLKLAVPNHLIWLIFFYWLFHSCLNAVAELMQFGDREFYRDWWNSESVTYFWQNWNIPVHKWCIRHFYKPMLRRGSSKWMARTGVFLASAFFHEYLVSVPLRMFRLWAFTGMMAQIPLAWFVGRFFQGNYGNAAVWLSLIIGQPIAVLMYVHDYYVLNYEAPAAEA
Description: DGAT enzyme inhibition test, hDGAT1 enzyme from sf9 insect cells. Particulars: enzyme from sf9 cells overexpressing hDGAT1; read-out: hDGAT-1 (sf9) IC50. An excerpt:
(§1) To investigate inhibitory effect of the compounds of Examples 1-33 against DGAT enzyme activity, DGAT enzyme inhibition and DGAT2 selectivity were investigated using zymogen including:
(§2) 1) hDGAT1 and hDGAT2 enzymes, derived from insect cell overexpressing human DGAT1 and DGAT2 (‘sf9’), respectively,
(§3) To be specific, for the purpose of measuring human-derived DGAT enzyme inhibitory activity, using the zymogen, including enzymes derived from insect cell overexpressing human DGAT1 and DGAT2 (‘sf9’), microsomal protein isolated from human duodenal adenocarcinoma (‘Hutu 80’), and microsomal protein isolated from rat, and according to Coleman et al., (Methods Enzymol., 98-103, 1992), and substrate including 1,2-diacylglycerol(Sigma, D0138) and [^14C]palmitoyl-CoA (Amersham, CFA583), the amount of radiation of [^14C]triacylglycerol produced after enzymatic reaction was measured.
(§4) To be more specific, to the reaction solution containing 175 mM Tris-HCl (pH 8.0), 20 μl bovine serum albumin (10 mg/ml), 100 mM magnesium chloride, 30 μM [^14C]palmitoyl CoA (0.02 μCi, Amersham) and 200 μM 1,2-dioleoylglycerol, reagent dissolved in dimethylsulfoxide (10.0 μl) was added. After introducing 100 to 200 μg isolated microsomal protein and allowing the same to react at 25° C. for 10 min, the reaction was stopped by adding 1.5 ml stop solution (2-propanol:heptane:water=80:20:2, v:v:v). To isolate the product of the reaction (i.e., [^14C]triacylglycerol), 1 ml heptane and 0.5 ml distilled water were added and then decocted. After taking 1 ml supernatant, 2 ml alkaline ethanol solution (ethanol:0.5 N sodium hydroxide:water=50:10:40, v:v:v) were added and then decocted. After taking 0.65 ml supernatant from the decoction, the amount of radiation was measured with liquid scintillation counter (LSC). The DGAT inhibitory activity was calculated with Mathematical Expression 1 below:
(§5) T denotes cpm of experimental group in which the enzymatic reaction solution was treated with the sample,
(§6) C denotes cpm of control group in which the enzymatic reaction solution was not treated with the sample, and
(§7) B denotes cpm of control group treated with the sample without zymogen.

A further experiment concerns the target T2, human DGAT2 (Homo sapiens, UniProt Q96PD7).
T2 construct: made in house; host or cells: sf9 insect cells
T2 sequence (Q96PD7 1-388): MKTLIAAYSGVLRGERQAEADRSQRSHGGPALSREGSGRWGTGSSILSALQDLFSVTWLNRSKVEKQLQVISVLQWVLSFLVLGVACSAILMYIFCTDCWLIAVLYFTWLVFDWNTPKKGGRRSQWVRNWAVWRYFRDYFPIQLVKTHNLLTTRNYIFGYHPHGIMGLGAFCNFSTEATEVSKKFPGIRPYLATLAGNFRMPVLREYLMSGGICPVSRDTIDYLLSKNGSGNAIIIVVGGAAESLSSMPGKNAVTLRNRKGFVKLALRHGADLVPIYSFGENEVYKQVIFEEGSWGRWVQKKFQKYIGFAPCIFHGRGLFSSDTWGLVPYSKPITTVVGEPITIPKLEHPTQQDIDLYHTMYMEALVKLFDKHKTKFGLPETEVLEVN
Description: DGAT enzyme inhibition test, hDGAT2 enzyme from sf9 insect cells (DGAT2 selectivity).
Source text: as §1, §2, §3, §4, §5, §6, §7

The next experiment addresses T3, DGAT-1 (rat liver) (Rattus norvegicus, UniProt Q9ERM3).
T3 construct: microsomal protein isolated from rat; from tissue; host or cells: rat liver microsomes
T3 sequence (Q9ERM3 1-498): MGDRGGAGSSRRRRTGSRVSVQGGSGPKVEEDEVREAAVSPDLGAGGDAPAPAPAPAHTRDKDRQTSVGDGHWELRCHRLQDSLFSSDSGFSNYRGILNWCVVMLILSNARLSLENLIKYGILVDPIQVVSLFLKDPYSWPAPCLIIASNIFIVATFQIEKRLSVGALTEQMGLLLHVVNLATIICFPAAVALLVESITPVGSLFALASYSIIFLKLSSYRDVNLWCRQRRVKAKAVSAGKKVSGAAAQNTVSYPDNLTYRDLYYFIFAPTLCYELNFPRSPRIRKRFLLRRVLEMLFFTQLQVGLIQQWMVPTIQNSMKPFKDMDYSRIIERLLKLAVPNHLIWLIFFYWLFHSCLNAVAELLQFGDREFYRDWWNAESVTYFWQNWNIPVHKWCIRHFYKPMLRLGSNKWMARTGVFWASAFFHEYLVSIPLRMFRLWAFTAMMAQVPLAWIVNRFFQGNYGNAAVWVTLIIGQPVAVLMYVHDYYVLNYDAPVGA
The experiment is described as follows: DGAT enzyme inhibition test, rat liver-derived DGAT enzyme. Particulars: rat liver microsomal protein.
Source text: as §1
3) rat liver-derived DGAT enzyme.
as §3, §4, §5, §6, §7

[1] abbreviates: 10 μM, enzyme from sf9 cells overexpressing hDGAT2, read-out: hDGAT-2 (sf9) inhibition rate(%)at 10 μM.
Where [2] appears, read: concentration of 10 μM, read-out: hDGAT2 inhibition.

Where two headings read alike, the source gives them in different places. Where only a bound is given, the exact number is not on record here.

Take `CC(C)=CCn1cc(/C=C/C(=O)N(NC(=O)c2ccccc2)C(C)C)c2ccccc21` [Example 27, (E)-N′-isopropyl-N′-(3-(1-(3-methylbut-2-enyl)-1H-indol-3-yl)acryloyl)benzohydrazide]: the IC50 on human DGAT1 amounted to 11.8 µM; on DGAT-1 (rat liver) it was 0.5 µM. Also, the inhibition at 10 µM on human DGAT2 (setting [1]) is 1.2%; on human DGAT2 (setting [2]) it was below 11%.

For the compound `CC(C)N(NC(=O)c1ccccc1)C(=O)/C=C/c1cn(C(=O)c2ccccc2)c2ccccc12` [Example 32, (E)-N′-(3-(1-benzoyl-1H-indol-3-yl)acryloyl)-N′-isopropylbenzohydrazide], the IC50 at human DGAT1 was 5.7 µM; against DGAT-1 (rat liver), 0.7 µM. In addition, the inhibition at 10 µM at human DGAT2 (setting [1]) is 11%; on human DGAT2 (setting [2]), below 11%.

Take `CC(C)=CCn1cc(/C=C/C(=O)N(NC(=O)c2ccc(F)cc2)C(C)C)c2ccccc21` [Example 49, (E)-4-fluoro-N′-isopropyl-N′-(3-(1-(3-methylbut-2-enyl)-1H-indol-3-yl)acryloyl)benzohydrazide]: the IC50 on human DGAT1 was determined as 1.5 µM. Also, at human DGAT2 (setting [1]), the inhibition at 10 µM was found to be 28%.

On to `CC(C)N(NC(=O)c1ccccc1)C(=O)/C=C/c1cn(CC2CC2)c2ccccc12` [Example 28, (E)-N′-(3-(1-(cyclopropylmethyl)-1H-indol-3-yl)acryloyl)-N′-isopropylbenzohydrazide], for which the IC50 on human DGAT1 was determined as 41.6 µM; on DGAT-1 (rat liver), 2.9 µM. In addition, the inhibition at 10 µM at human DGAT2 (setting [1]) was below 0%; at human DGAT2 (setting [2]), below 11%.

On to `CC(C)N(NC(=O)c1cccc(F)c1)C(=O)/C=C/c1cn(C(=O)OC(C)(C)C)c2ccccc12` [Example 15, (E)-tert-butyl 3-(3-(2-(3-fluorobenzoyl)-1-isopropylhydrazinyl)-3-oxoprop-1-enyl)-1H-indole-1-carboxylate], for which the IC50 amounted to 20.4 µM on human DGAT1 and 0.4 µM at DGAT-1 (rat liver). Besides, the inhibition at 10 µM is below 0% at human DGAT2 (setting [1]) and below 11% at human DGAT2 (setting [2]).

Consider `COC(=O)COc1cccc(C(=O)NN(C(=O)/C=C/c2cn(C(=O)OC(C)(C)C)c3ccccc23)C(C)C)c1` [Example 18, (E)-tert-butyl 3-(3-(1-isopropyl-2-(3-(2-methoxy-2-oxoethoxy)benzoyl)hydrazinyl)-3-oxoprop-1-enyl)-1H-indole-1-carboxylate], for which the IC50 on human DGAT1 is above 100 µM; on DGAT-1 (rat liver), 20.3 µM. For the same compound, the inhibition at 10 µM on human DGAT2 (setting [1]) was below 0%.

For `CC(C)N(NC(=O)c1ccc(OCCN2CCOCC2)cc1)C(=O)/C=C/c1cn(C(=O)OC(C)(C)C)c2ccccc12` [Example 9, (E)-tert-butyl 3-(3-(1-isopropyl-2-(4-(2-morpholinoethoxy)benzoyl)hydrazinyl)-3-oxoprop-1-enyl)-1H-indole-1-carboxylate], the values for the IC50 at human DGAT1 and on DGAT-1 (rat liver) were above 100 µM and 11.8 µM, respectively. The inhibition at 10 µM at human DGAT2 (setting [1]) is below 0%.

`CC(C)N(NC(=O)c1cccc(Br)c1)C(=O)/C=C/c1cn(C(=O)OC(C)(C)C)c2ccccc12` [Example 12, (E)-tert-butyl 3-(3-(2-(3-bromobenzoyl)-1-isopropylhydrazinyl)-3-oxoprop-1-enyl)-1H-indole-1-carboxylate]: the results for the IC50 on human DGAT1 and against DGAT-1 (rat liver) were 6.8 µM and 1.7 µM, respectively. In addition, the inhibition at 10 µM was 3.9% at human DGAT2 (setting [1]) and below 11% on human DGAT2 (setting [2]).

As to `CC(C)N(NC(=O)c1ccccc1)C(=O)CCc1cn(C(=O)OC(C)(C)C)c2ccccc12` [Example 24, tert-butyl 3-(3-(2-benzoyl-1-isopropylhydrazinyl)-3-oxopropyl)-1H-indole-1-carboxylate], the values for the IC50 at human DGAT1 and at DGAT-1 (rat liver) were above 100 µM and 8.6 µM, respectively. For the same compound, the inhibition at 10 µM on human DGAT2 (setting [1]) was below 0%.

For `CC(=O)n1cc(/C=C/C(=O)N(NC(=O)c2ccccc2)C(C)C)c2ccccc21` [Example 30, (E)-N′-(3-(1-acetyl-1H-indol-3-yl)acryloyl)-N′-isopropylbenzohydrazide], the IC50 on human DGAT1 is 65.3 µM; at DGAT-1 (rat liver), 22.5 µM. Further, the inhibition at 10 µM at human DGAT2 (setting [1]) was below 0%.

In the case of `CC(C)N(NC(=O)c1cccc(OCC(=O)O)c1)C(=O)/C=C/c1cn(C(=O)OC(C)(C)C)c2ccccc12` [Example 19, (E)-2-(3-(2-(3-(1-(tert-butoxycarbonyl)-1H-indol-3-yl)acryloyl)-2-isopropylhydrazinecarbonyl)phenoxy)acetic acid], the half-maximal inhibitory concentration (IC50) at human DGAT1 was above 100 µM; on DGAT-1 (rat liver), 45.5 µM. Further, the inhibition at 10 µM at human DGAT2 (setting [1]) was below 0%.

With `CC(C)N(NC(=O)c1ccc(F)cc1)C(=O)/C=C/c1cn(C(=O)OC(C)(C)C)c2ccccc12` [Example 44, (E)-tert-butyl 3-(3-(2-(4-fluorobenzoyl)-1-isopropylhydrazinyl)-3-oxoprop-1-enyl)-1H-indole-1-carboxylate], the IC50 on human DGAT1 was 2.1 µM. On human DGAT2 (setting [1]), the inhibition at 10 µM was 28.9%.

With `CC(C)CCn1cc(/C=C/C(=O)N(NC(=O)c2ccc(F)cc2)C(C)C)c2ccccc21` [Example 46, (E)-4-fluoro-N′-(3-(1-isopentyl-1H-indol-3-yl)acryloyl)-N′-isopropylbenzohydrazide], the IC50 on human DGAT1 was 1 µM. The inhibition at 10 µM on human DGAT2 (setting [1]) worked out at 64%.

Regarding `CC(C)N(NC(=O)c1cccc(O)c1)C(=O)/C=C/c1cn(C(=O)OC(C)(C)C)c2ccccc12` [Example 4, (E)-tert-butyl 3-(3-(2-(3-hydroxybenzoyl)-1-isopropylhydrazinyl)-3-oxoprop-1-enyl)-1H-indole-1-carboxylate], the IC50 was above 100 µM on human DGAT1 and 22.4 µM against DGAT-1 (rat liver). In addition, the inhibition at 10 µM at human DGAT2 (setting [1]) was below 0%.

Turning to `Cc1ccc(C(=O)NN(C(=O)/C=C/c2cn(C(=O)OC(C)(C)C)c3ccccc23)C(C)C)cc1` [Example 48, (E)-tert-butyl 3-(3-(1-isopropyl-2-(4-methylbenzoyl)hydrazinyl)-3-oxoprop-1-enyl)-1H-indole-1-carboxylate], the IC50 at human DGAT1 was found to be 9.8 µM. In addition, the inhibition at 10 µM on human DGAT2 (setting [1]) was determined as 22.1%.

On to `Cc1cccc(C(=O)NN(C(=O)/C=C/c2cn(C(=O)OC(C)(C)C)c3ccccc23)C(C)C)c1` [Example 47, (E)-tert-butyl 3-(3-(1-isopropyl-2-(3-methylbenzoyl)hydrazinyl)-3-oxoprop-1-enyl)-1H-indole-1-carboxylate], for which the IC50 on human DGAT1 was determined as 2.9 µM. The inhibition at 10 µM on human DGAT2 (setting [1]) came to 34.1%.

Values taken from patent US8906952B2, “Indole derivative or pharmaceutically acceptable salt thereof, preparation method thereof, and pharmaceutical composition for preventing or treating metabolic diseases containing same as active ingredient” (Korea Research Institute of Bioscience and Biotechnology, priority 2011, dated 2014).
